The supplement of paper PMC12646585
± gives the uncertainty stated by the source.

Test system: TK6
Assay: relative viability (MTT, 20-24 h post-exposure) vs solvent control; higher = less cytotoxic
Conditions: exposure time: 4 h (S9 compounds: 3 h + 4 h recovery)
Method: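 Human TK6 lymphoblastoid cells were exposed for 4 h to three concentrations of each compound at four ring-trial labs. Compounds P, Q, R and CC were given for 3 h with rat liver S9 plus 4 h recovery. Relative survival was measured by MTT assay 20-24 h after exposure, as % viability relative to solvent control (mean with SD), in the Result 1 round with preselected concentrations.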

O=[N+]([O-])c1ccc(O)c([N+](=O)[O-])c1 [2,4-Dinitrophenol]
relative viability [%]
Conditions	batch: 3, lab: Lab 1	batch: 3, lab: Lab 2	batch: 3, lab: Lab 3	batch: 3, lab: Lab 4
concentration: 0.11mM	92.2 ± 1.2	98.2 ± 5	71.1 ± 14	97.7 ± 3.1
concentration: 0.33mM	84.7 ± 2.5	85 ± 2.5	67.4 ± 1.1	98.6 ± 8.2
concentration: 1mM	58.6 ± 2.2	37.2 ± 10	63.9 ± 1.4	99.4 ± 6.2

Nc1ccc2cc3ccccc3cc2c1 [2-Aminoanthracene]
relative viability [%]
Conditions	batch: 4, lab: Lab 1	batch: 4, lab: Lab 2	batch: 4, lab: Lab 3	batch: 4, lab: Lab 4
concentration: 0.22ug/mL	95.8 ± 6.6	97.3 ± 23	102 ± 11	96.3 ± 3
concentration: 0.67ug/mL	94.8 ± 3.9	87.8 ± 18	95.5 ± 8.5	93.5 ± 2.5
concentration: 2ug/mL	47 ± 5.6	16.8 ± 1.3	23.1 ± 0.8	9.75 ± 11

CC1(C)S[C@@H]2[C@H](NC(=O)[C@H](N)c3ccccc3)C(=O)N2[C@H]1C(=O)O [Ampicillin]
relative viability [%]
Conditions	batch: 1, lab: Lab 1	batch: 1, lab: Lab 2	batch: 1, lab: Lab 3	batch: 1, lab: Lab 4
concentration: 0.11mM	102 ± 5.6	104 ± 3	115 ± 6.7	127 ± 17
concentration: 0.33mM	94.9 ± 3.7	115 ± 8.7	123 ± 5.7	126 ± 9.4
concentration: 1mM	99.9 ± 6.3	98.3 ± 12	121 ± 3.4	112 ± 9.2

c1ccc2c(c1)cc1ccc3cccc4ccc2c1c34 [Benzo[a]pyrene]
concentration: 10ug/mL
Conditions	relative viability [%]
batch: 4, lab: Lab 1	67.8 ± 2.3
batch: 4, lab: Lab 2	35.7 ± 2
batch: 4, lab: Lab 3	66.3 ± 0.7
batch: 4, lab: Lab 4	75 ± 5.3

Cc1c(N)nc(C(CC(N)=O)NCC(N)C(N)=O)nc1C(=O)NC(C(=O)NC(C)C(O)C(C)C(=O)NC(C(=O)NCCc1nc(-c2nc(C(=O)NCCC[S+](C)C)cs2)cs1)C(C)O)C(O[C@@H]1O[C@@H](CO)[C@@H](O)[C@H](O)[C@@H]1O[C@H]1O[C@H](CO)[C@@H](O)[C@H](OC(N)=O)[C@@H]1O)c1cnc[nH]1.O=S(=O)([O-])O (stereo partly drawn) [Bleomycin (sulfate)]
Conditions	relative viability [%]
concentration: 5ug/mL, batch: 2, lab: Lab 1	80.5 ± 4.2
concentration: 5ug/mL, batch: 2, lab: Lab 2	53.4 ± 7.1
concentration: 5ug/mL, batch: 2, lab: Lab 3	51 ± 6.2
concentration: 5ug/mL, batch: 2, lab: Lab 4	56.4 ± 1.8
concentration: 5ug/mL, batch: 3, lab: Lab 1	78 ± 4
concentration: 5ug/mL, batch: 3, lab: Lab 2	66 ± 7.1
concentration: 5ug/mL, batch: 3, lab: Lab 3	49.7 ± 3.8
concentration: 5ug/mL, batch: 3, lab: Lab 4	54.6 ± 2.8
concentration: 10ug/mL, batch: 1, lab: Lab 1	41.8 ± 3.7
concentration: 10ug/mL, batch: 1, lab: Lab 2	59.6 ± 4.6
concentration: 10ug/mL, batch: 1, lab: Lab 3	53 ± 3.7
concentration: 10ug/mL, batch: 1, lab: Lab 4	50.6 ± 1.6

Cn1c(=O)c2c(ncn2C)n(C)c1=O [Caffeine]
concentration: 2mM
Conditions	relative viability [%]
batch: 1, lab: Lab 1	94.7 ± 2.1
batch: 1, lab: Lab 2	86.4 ± 4
batch: 1, lab: Lab 3	108 ± 4.5
batch: 1, lab: Lab 4	98.2 ± 4.2
batch: 2, lab: Lab 1	96.7 ± 1
batch: 2, lab: Lab 2	80.1 ± 13
batch: 2, lab: Lab 3	88.9 ± 6.5
batch: 2, lab: Lab 4	100 ± 7
batch: 3, lab: Lab 1	96.4 ± 2.7
batch: 3, lab: Lab 2	92.5 ± 5.4
batch: 3, lab: Lab 3	107 ± 2.4
batch: 3, lab: Lab 4	92.6 ± 11

O=C(O)CCCc1ccc(N(CCCl)CCCl)cc1 [Chlorambucil]
relative viability [%]
Conditions	batch: 3, lab: Lab 1	batch: 3, lab: Lab 2	batch: 3, lab: Lab 3	batch: 3, lab: Lab 4
concentration: 0.44uM	95.2 ± 3.8	84.9 ± 7.7	80.8 ± 2.1	97.2 ± 12
concentration: 1.33uM	89.6 ± 3.8	95.9 ± 17	74.1 ± 1.5	92.3 ± 14
concentration: 4uM	78.9 ± 3.7	71.7 ± 8.3	67.2 ± 0.8	75.3 ± 14

C[C@@H]1C[C@@H]([C@H](O)CC2CC(=O)NC(=O)C2)C(=O)[C@@H](C)C1 [Cycloheximide]
relative viability [%]
Conditions	batch: 1, lab: Lab 1	batch: 1, lab: Lab 2	batch: 1, lab: Lab 3	batch: 1, lab: Lab 4
concentration: 1.11uM	89.7 ± 6.7	85.7 ± 4.6	94.1 ± 0.6	86.8 ± 5.5
concentration: 3.33uM	64 ± 7.6	65.6 ± 6.2	72.2 ± 7.4	69.7 ± 4.6
concentration: 10uM	49.4 ± 6.1	46.1 ± 4.8	41.3 ± 2.9	57.4 ± 5.4
